The text below walks through data of patent US9415055B2, “Cyclic amines” (H. Lundbeck A/S, priority 2012, dated 2016).

The IC50 is the concentration that gives 50% inhibition. A high value points to a need for much substance.

P2X7 receptor, sequence (Q99572 whole entry): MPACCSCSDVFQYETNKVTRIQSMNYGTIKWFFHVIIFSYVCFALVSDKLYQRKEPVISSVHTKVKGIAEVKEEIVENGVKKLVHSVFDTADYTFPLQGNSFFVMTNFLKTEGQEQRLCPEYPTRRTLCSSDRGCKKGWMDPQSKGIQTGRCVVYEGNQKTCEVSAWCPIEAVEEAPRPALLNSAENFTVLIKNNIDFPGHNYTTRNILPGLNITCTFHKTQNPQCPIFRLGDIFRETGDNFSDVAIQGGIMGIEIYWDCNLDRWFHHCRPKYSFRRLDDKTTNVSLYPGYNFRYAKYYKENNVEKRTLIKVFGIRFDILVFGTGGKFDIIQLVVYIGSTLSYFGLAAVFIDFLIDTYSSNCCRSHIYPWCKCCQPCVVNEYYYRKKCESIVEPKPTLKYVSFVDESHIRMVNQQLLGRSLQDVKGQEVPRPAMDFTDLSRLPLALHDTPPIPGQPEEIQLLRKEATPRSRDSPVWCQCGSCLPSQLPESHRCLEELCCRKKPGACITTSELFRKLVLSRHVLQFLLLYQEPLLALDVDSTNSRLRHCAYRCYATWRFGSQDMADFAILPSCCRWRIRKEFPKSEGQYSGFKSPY

The test addresses P2X7 receptor (Homo sapiens (Human), UniProt Q99572). Kind of test: P2X7 FLIPR assay: antagonism of BzATP response in 293 HEK cells stably expressing P2X7 receptor. It is filed as cell-based. Particulars: FLIPR fluorescence (Fluo-4), agonist BzATP, 293 HEK cells stably transfected with P2X7 receptor. A digest of the protocol: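 Antagonist IC50 derived from FLIPR Tetra Fluo-4 calcium signal evoked by BzATP. Compound pre-incubation was 30 min at room temperature on P2X7-expressing HEK293 cells, seeded 24 h before in low-serum medium and dye-loaded 30 min at 37 °C then 30 min at RT.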
Turning to `Cc1ncc(C(CNC(=O)c2cccc(Cl)c2Cl)N2CCCCC2C(C)C)cn1` (stereo not drawn) [2,3-dichloro-N-(2-(2-isopropylpiperidin-1-yl)-2-(2-methylpyrimidin-5-yl)ethyl)benzamide], the IC50 stood at 1900 nM.
To `O=C(NCC(c1cnc(C(F)F)nc1)N1CCOCC1)c1cccc(Cl)c1Cl` (single isomer, unassigned; (+)) [(+)2,3-dichloro-N-[2-[2-(difluoromethyl)pyrimidin-5-yl]-2-mo] [(+)2,3-dichloro-N-(2-(2-(difluoromethyl)pyrimidin-5-yl)-2-morpholinoethyl)benzamide] belongs 3.9 nM.
To `O=C(NCC(c1ccc(Cl)nc1)N1CCOCC1)c1cccc(Cl)c1Cl` (stereo not drawn) [2,3-Dichloro-N-[2-(6-chloro-3-pyridyl)-2-morpholino-ethyl]benzamide] belongs 3.9 nM; to `Cc1ncc(C(CNC(=O)c2cccc(Cl)c2Cl)N2CCC(F)(F)CC2)cn1` (single isomer, unassigned; (-)) [(−)2,3-dichloro-N-[2-(4,4-difluoro-1-piperidyl)-2-(2-methylp] [(−)2,3-dichloro-N-(2-(4,4-difluoropiperidin-1-yl)-2-(2-methylpyrimidin-5-yl)ethyl)benzamide], 5.8 nM.
The molecule `O=C(NCC(c1cnc(C(F)(F)F)nc1)N1CCC(F)(F)CC1)c1ccc(Cl)cc1Cl` (single isomer, unassigned; (+)) [(+)2,4-dichloro-N-[2-(4,4-difluoro-1-piperidyl)-2-[2-(triflu] [(+)2,4-dichloro-N-(2-(4,4-difluoropiperidin-1-yl)-2-(2-(trifluoromethyl)pyrimidin-5-yl)ethyl)benzamide] displayed an IC50 of 5.6 nM.
In the case of `O=C(NCC(c1cnc(C(F)(F)F)nc1)N1CCOCC1)c1cccc(Cl)c1Cl` (single isomer, unassigned; (-)) [(−)2,3-dichloro-N-[2-morpholino-2-[2-(trifluoromethyl)pyrimi] [(−)2,3-Dichloro-N-[2-morpholino-2-[2-(trifluoromethyl)pyrimidin-5-yl]ethyl]benzamide] it was 3.2 nM; in that of `O=C(NCC(c1cnc(C(F)(F)F)nc1)N1CCOCC1)c1cccc(Cl)c1Cl` (single isomer, unassigned; (+)) [(+)2,3-dichloro-N-[2-morpholino-2-[2-(trifluoromethyl)pyrimi] [(+)2,3-Dichloro-N-[2-morpholino-2-[2-(trifluoromethyl)pyrimidin-5-yl]ethyl]benzamide], 4.8 nM; in that of `O=C(NCC(c1cnc(C(F)(F)F)nc1)N1CCC(F)(F)CC1)c1c(Cl)cc(F)cc1Cl` (single isomer, unassigned; (+)) [(+)2,6-dichloro-N-[2-(4,4-difluoro-1-piperidyl)-2-[2-(triflu] [(+)2,6-dichloro-4-fluoro-N-(2-(4,4-difluoropiperidin-1-yl)-2-(2-(trifluoromethyl)pyrimidin-5-yl)ethyl)benzamide], 7.5 nM.
`COc1cccc(C(=O)NCC(c2ccc(F)cc2)N2CCC(F)(F)CC2)c1Cl` (single isomer, unassigned; (-)) [(−)2-chloro-N-(2-(4,4-difluoropiperidin-1-yl)-2-(4-fluorophenyl)ethyl)-3-methoxybenzamide] had an IC50 of 2.6 nM.
To `O=C(NCC(c1ccc(C(F)F)nc1)N1CCC(F)(F)CC1)c1c(Cl)cccc1Cl` (single isomer, unassigned; (+)) [(+)2,6-dichloro-N-[2-[6-(difluoromethyl)-3-pyridyl]-2-(4,4-d] [(+)2,6-dichloro-N-(2-(2-(difluoromethyl)pyridin-5-yl)-2-(4,4-difluoropiperidin-1-yl)ethyl)benzamide] belongs 8.7 nM; to `Cc1ncc(C(CNC(=O)c2c(F)cccc2Cl)N2CCCC(F)(F)C2)cn1` (single isomer, unassigned; (+)) [(+)2-chloro-N-[2-(3,3-difluoro-1-piperidyl)-2-(2-methylpyrim] [(+)2-chloro-6-fluoro-N-(2-(3,3-difluoropiperidin-1-yl)-2-(2-methylpyrimidin-5-yl)ethyl)benzamide], 53 nM.
In the case of `O=C(NCC(c1cnc(C(F)(F)F)nc1)N1CCC(F)(F)CC1)c1c(F)cc(Cl)cc1Cl` (single isomer, unassigned; (-)) [(−)2,4-dichloro-N-[2-(4,4-difluoro-1-piperidyl)-2-[2-(triflu] [(−)2,4-dichloro-6-fluoro-N-(2-(4,4-difluoropiperidin-1-yl)-2-(2-(trifluoromethyl)pyrimidin-5-yl)ethyl)benzamide] it was 6.5 nM; in that of `COc1cccc(C(=O)NCC(c2cnc(C)nc2)N2CCC(F)(F)CC2)c1Cl` (single isomer, unassigned; (-)) [(−)2-chloro-N-[2-(4,4-difluoro-1-piperidyl)-2-(2-methylpyrim] [(−)2-chloro-3-methoxy-N-(2-(4,4-difluoropiperidin-1-yl)-2-(2-methylpyrimidin-5-yl)ethyl)benzamide], 11 nM; in that of `O=C(NCC(c1ccncc1)N1CCOCC1)c1cccc(Cl)c1Cl` (stereo not drawn) [2,3-Dichloro-N-(2-morpholin-4-yl-2-pyridin-4-yl-ethyl)-benzamide], 750 nM.
The molecule `CCc1ncc(C(CNC(=O)c2ccccc2Cl)N2CCC(F)(F)CC2)cn1` (single isomer, unassigned; (+)) [(+)2-chloro-N-[2-(4,4-difluoro-1-piperidyl)-2-(2-ethylpyrimi] [(+)2-chloro-N-(2-(4,4-difluoropiperidin-1-yl)-2-(2-ethylpyrimidin-5-yl)ethyl)benzamide] came in with an IC50 of 12 nM.
Regarding `O=C(NCC(c1cnc(C(F)(F)F)nc1)N1CCOCC1)c1ccccc1F` (single isomer, unassigned; (-)) [(−)2-Fluoro-N-[2-morpholino-2-[2-(trifluoromethyl)pyrimidin-5-yl]ethyl]benzamide], the IC50 amounted to 44 nM.
In the case of `Cc1cccc(C(=O)NCC(c2ccc(F)cc2)N2CCOCC2)c1C` (stereo not drawn) [N-[2-(4-Fluoro-phenyl)-2-morpholin-4-yl-ethyl]-2,3-dimethyl-benzamide] it was 20 nM.
The molecule `COc1ccc(C(CNC(=O)c2cccc(Cl)c2Cl)N2CCC(F)(F)CC2)cc1` (stereo not drawn) [2,3-dichloro-N-[2-(4,4-difluoro-1-piperidyl)-2-(4-methoxyphenyl)ethyl]benzamide] returned a half-inhibitory concentration (IC50) of 0.6 nM.
To `Cc1ncc(C(CNC(=O)c2cccc(F)c2Cl)N2CCCC(F)(F)C2)cn1` (single isomer, unassigned; (+)) [(+)2-chloro-N-[2-(3,3-difluoro-1-piperidyl)-2-(2-methylpyrim] [(+)2-chloro-3-fluoro-N-(2-(3,3-difluoropiperidin-1-yl)-2-(2-methylpyrimidin-5-yl)ethyl)benzamide] belongs 100 nM.
In the case of `O=C(NCC(c1cnc(C(F)F)nc1)N1CCOCC1)c1ccccc1Cl` (single isomer, unassigned; (-)) [(−)2-chloro-N-[2-[2-(difluoromethyl)pyrimidin-5-yl]-2-morpho] [(−)2-chloro-N-(2-(2-(difluoromethyl)pyrimidin-5-yl)-2-morpholinoethyl)benzamide] it was 15 nM; in that of `Cn1cc(C(CNC(=O)c2cccc(Cl)c2Cl)N2CCC(F)(F)CC2)cn1` (single isomer, unassigned; (+)) [(+)2,3-dichloro-N-[2-(4,4-difluoro-1-piperidyl)-2-(1-methylp] [(+)2,3-dichloro-N-(2-(4,4-difluoropiperidin-1-yl)-2-(1-methyl-1H-pyrazol-4-yl)ethyl)benzamide], 12 nM.
